PubChem BioAssay (NCI)
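Protocol summary: plate cells (96-well), add compound at 5 concentrations, incubate 48 h, interpolate endpoints linearly. GI50 = concentration required for 50% inhibition of growth. TGI denotes the concentration required for complete inhibition of growth.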

Key:
Experiment in all cases: DTP human tumour cell line panel, 48 h; in the data active = GI50 below about 0.43 µM; inactive = the rest
MDA-MB-231 breast = test system: MDA-MB-231 breast
NCI/ADR-RES ovarian = test system: NCI/ADR-RES ovarian
HT29 colon = test system: HT29 colon
NCI-H23 lung = test system: NCI-H23 lung
HCT-116 colon = test system: HCT-116 colon
SF-539 CNS = test system: SF-539 CNS
SK-MEL-2 melanoma = test system: SK-MEL-2 melanoma
IGROV1 ovarian = test system: IGROV1 ovarian
SR leukemia = test system: SR leukemia
MALME-3M melanoma = test system: MALME-3M melanoma

NNc1nc(-c2ccccn2)nc2sc3c(c12)CCCCCC3
inactive: GI50 (MDA-MB-231 breast) 12.7 µM | GI50 (NCI/ADR-RES ovarian) 453 nM | GI50 (HT29 colon) 5.53 µM | GI50 (NCI-H23 lung) 9 µM | GI50 (HCT-116 colon) 3530 nM | GI50 (SF-539 CNS) 10.9 µM | GI50 (SK-MEL-2 melanoma) 14.4 µM | GI50 (IGROV1 ovarian) 4.21 µM
52.3 µM: TGI (NCI/ADR-RES ovarian)
> 100 µM: TGI (MDA-MB-231 breast) | TGI (HT29 colon) | TGI (NCI-H23 lung) | TGI (HCT-116 colon) | TGI (SF-539 CNS) | TGI (SK-MEL-2 melanoma) | TGI (IGROV1 ovarian)

O=C(/C=C/c1ccc2c(c1)OCO2)c1ccccc(=O)c1O
72.7 µM: TGI (SK-MEL-2 melanoma)
14.2 µM: TGI (NCI/ADR-RES ovarian)
41.8 µM: TGI (IGROV1 ovarian)
26.3 µM: TGI (HT29 colon)
60 µM: TGI (MALME-3M melanoma)
> 100 µM: TGI (MDA-MB-231 breast) | TGI (HCT-116 colon) | TGI (SR leukemia)

COc1ccc2c(c1)c(=O)oc1cc(OC/C(=N\O)c3ccc(F)cc3)ccc12
47.4 µM: TGI (SK-MEL-2 melanoma)
43.4 µM: TGI (MDA-MB-231 breast)
44.2 µM: TGI (MALME-3M melanoma)
28 µM: TGI (HCT-116 colon)
40.9 µM: TGI (SF-539 CNS)
49.7 µM: TGI (NCI/ADR-RES ovarian)
36.6 µM: TGI (HT29 colon)
inactive: GI50 (MDA-MB-231 breast) 18 µM | GI50 (NCI/ADR-RES ovarian) 18200 nM | GI50 (HT29 colon) 15.5 µM | GI50 (NCI-H23 lung) 20.4 µM | GI50 (HCT-116 colon) 14200 nM | GI50 (SF-539 CNS) 21.4 µM | GI50 (SK-MEL-2 melanoma) 19.1 µM | GI50 (MALME-3M melanoma) 16.3 µM | GI50 (IGROV1 ovarian) 20.5 µM
54.3 µM: TGI (NCI-H23 lung)
50.5 µM: TGI (IGROV1 ovarian)

NC(CCCNCc1ccccc1O)C(=O)O (stereo unspecified)
> 100 µM: TGI (HT29 colon) | TGI (NCI-H23 lung) | TGI (HCT-116 colon) | TGI (SF-539 CNS) | TGI (SK-MEL-2 melanoma) | TGI (MALME-3M melanoma) | TGI (IGROV1 ovarian)

CC1=NN(c2ccccc2)C(=O)C1C(=O)C(=O)Nc1ccc(C)cc1C (stereo unspecified)
> 100 µM: TGI (NCI/ADR-RES ovarian) | TGI (HT29 colon) | TGI (NCI-H23 lung) | TGI (HCT-116 colon) | TGI (SF-539 CNS) | TGI (SR leukemia) | TGI (SK-MEL-2 melanoma) | TGI (MALME-3M melanoma) | TGI (IGROV1 ovarian)

COc1ccc(OC)c2c3c(ncc12)-c1cc2c(cc1C3)OCO2
> 100 µM: TGI (MDA-MB-231 breast) | TGI (NCI/ADR-RES ovarian) | TGI (HCT-116 colon) | TGI (SR leukemia) | TGI (SK-MEL-2 melanoma) | TGI (IGROV1 ovarian)
inactive: GI50 (MDA-MB-231 breast) 4.76 µM | GI50 (NCI/ADR-RES ovarian) > 100000 nM | GI50 (SR leukemia) 4220 nM | GI50 (SK-MEL-2 melanoma) > 100 µM | GI50 (IGROV1 ovarian) 4.24 µM
active: GI50 (HCT-116 colon) 249 nM

O=c1nc2[nH]nc(-c3ccccc3)c2n[nH]1
36.4 µM: TGI (SF-539 CNS)
> 100 µM: TGI (HT29 colon) | TGI (NCI-H23 lung) | TGI (HCT-116 colon) | TGI (SR leukemia) | TGI (SK-MEL-2 melanoma) | TGI (IGROV1 ovarian)

O=C1CC23CC(=O)CC2(C1)c1ccccc1C3=O (stereo unspecified)
> 100 µM: TGI (HT29 colon) | TGI (NCI-H23 lung) | TGI (HCT-116 colon) | TGI (SF-539 CNS) | TGI (SK-MEL-2 melanoma) | TGI (MALME-3M melanoma) | TGI (IGROV1 ovarian)

COC(=O)CCC(=O)C(C#N)c1ccc(Cl)cc1Cl (stereo unspecified)
> 100 µM: TGI (HT29 colon) | TGI (NCI-H23 lung) | TGI (HCT-116 colon) | TGI (SF-539 CNS) | TGI (SR leukemia) | TGI (SK-MEL-2 melanoma) | TGI (MALME-3M melanoma) | TGI (IGROV1 ovarian)

CCCN1CN(C(C(=O)N[C@@H]2C(=O)N3C(C(=O)O)=C(C)CSC23)c2ccccc2)CSC1=S (stereo partly specified)
> 100 µM: TGI (HT29 colon) | TGI (NCI-H23 lung) | TGI (HCT-116 colon) | TGI (SF-539 CNS) | TGI (SK-MEL-2 melanoma) | TGI (MALME-3M melanoma) | TGI (IGROV1 ovarian)

O=c1[nH]c(C2CCCCC2)nc2cc(Cl)ccc12
> 100 µM: TGI (HT29 colon) | TGI (NCI-H23 lung) | TGI (HCT-116 colon) | TGI (SF-539 CNS) | TGI (SR leukemia) | TGI (SK-MEL-2 melanoma) | TGI (MALME-3M melanoma) | TGI (IGROV1 ovarian)

COC(=O)[C@]1(C)CCC[C@]2(C)C3CC4OOC3(C=C4C(C)C)CCC21 (stereo partly specified)
41.6 µM: TGI (MALME-3M melanoma)
32.8 µM: TGI (NCI-H23 lung)
26.6 µM: TGI (SR leukemia)
29.4 µM: TGI (HT29 colon)
35.7 µM: TGI (IGROV1 ovarian)
31.5 µM: TGI (SK-MEL-2 melanoma)
29 µM: TGI (HCT-116 colon)
30.7 µM: TGI (SF-539 CNS)

C/C(CC(=O)Nc1ccc([N+](=O)[O-])cc1)=N/N=C(N)N
> 100 µM: TGI (HT29 colon) | TGI (NCI-H23 lung) | TGI (HCT-116 colon) | TGI (SF-539 CNS) | TGI (SK-MEL-2 melanoma) | TGI (MALME-3M melanoma) | TGI (IGROV1 ovarian)

Cn1c(-c2ccccc2)c/c(=N\NS(C)(=O)=O)c2cc(S(=O)(=O)O)ccc21
> 100 µM: TGI (HT29 colon) | TGI (NCI-H23 lung) | TGI (HCT-116 colon) | TGI (SF-539 CNS) | TGI (SR leukemia) | TGI (SK-MEL-2 melanoma) | TGI (MALME-3M melanoma) | TGI (IGROV1 ovarian)

COc1cc2c(/C=C3/C(=O)Nc4c3ccc3ccccc43)c(Cl)[nH]c2cc1C
0.119 µM: TGI (SF-539 CNS)
> 30.1 µM: TGI (SK-MEL-2 melanoma)
1.09 µM: TGI (NCI/ADR-RES ovarian)
> 50 µM: TGI (HT29 colon)
4.59 µM: TGI (NCI-H23 lung)
inactive: GI50 (SK-MEL-2 melanoma) 0.872 µM
< 0.005 µM: TGI (SR leukemia)
active: GI50 (MDA-MB-231 breast) 0.0366 µM | GI50 (NCI/ADR-RES ovarian) 13.9 nM | GI50 (HT29 colon) 0.0246 µM | GI50 (NCI-H23 lung) 0.0152 µM | GI50 (HCT-116 colon) 7.8 nM | GI50 (SF-539 CNS) 0.0106 µM | GI50 (SR leukemia) < 5 nM | GI50 (IGROV1 ovarian) 0.0125 µM

[O-][N+]1=C(c2ccccc2)COc2ccccc21
> 100 µM: TGI (HT29 colon) | TGI (NCI-H23 lung) | TGI (HCT-116 colon) | TGI (SF-539 CNS) | TGI (SR leukemia) | TGI (SK-MEL-2 melanoma) | TGI (MALME-3M melanoma) | TGI (IGROV1 ovarian)

O=C(CCc1cc(-c2ccco2)n(-c2ccc([N+](=O)[O-])cc2[N+](=O)[O-])n1)Nc1ccccc1
94.2 µM: TGI (MALME-3M melanoma)
> 100 µM: TGI (HT29 colon) | TGI (NCI-H23 lung) | TGI (HCT-116 colon) | TGI (SF-539 CNS) | TGI (SR leukemia) | TGI (SK-MEL-2 melanoma) | TGI (IGROV1 ovarian)

COC(=O)C1CCc2nnc(-c3cccnc3)n21 (stereo unspecified)
> 100 µM: TGI (HCT-116 colon) | TGI (SF-539 CNS) | TGI (SR leukemia) | TGI (SK-MEL-2 melanoma) | TGI (MALME-3M melanoma) | TGI (IGROV1 ovarian)

Cn1cc(-c2nc(-c3cn(C)c4ncccc34)cs2)c2cc(F)ccc21
41.2 µM: TGI (HCT-116 colon)
> 100 µM: TGI (NCI-H23 lung)
inactive: GI50 (MDA-MB-231 breast) 3.01 µM | GI50 (NCI/ADR-RES ovarian) 511 nM | GI50 (NCI-H23 lung) 2.76 µM | GI50 (HCT-116 colon) 775 nM | GI50 (SF-539 CNS) 1.8 µM | GI50 (SR leukemia) 565 nM | GI50 (SK-MEL-2 melanoma) 3.96 µM
17.8 µM: TGI (SR leukemia)
5.28 µM: TGI (SF-539 CNS)
22.2 µM: TGI (MDA-MB-231 breast)
37.2 µM: TGI (SK-MEL-2 melanoma)
8.61 µM: TGI (NCI/ADR-RES ovarian)

COC(=O)/C(Cl)=C1/CC1COCc1ccccc1 (stereo unspecified)
88.2 µM: TGI (NCI-H23 lung)
49.8 µM: TGI (SF-539 CNS)
58 µM: TGI (HT29 colon)
96.9 µM: TGI (SK-MEL-2 melanoma)
83.1 µM: TGI (MALME-3M melanoma)
> 100 µM: TGI (IGROV1 ovarian)

CC(C)(C)C1CCN(C(=O)c2ccccc2)CC1
> 100 µM: TGI (HT29 colon) | TGI (NCI-H23 lung) | TGI (HCT-116 colon) | TGI (SF-539 CNS) | TGI (SR leukemia) | TGI (SK-MEL-2 melanoma) | TGI (MALME-3M melanoma) | TGI (IGROV1 ovarian)

COC1=CC(=O)C2[C@H]3Cc4ccccc4[C@H]3C2(C)C1=O (stereo partly specified)
> 100 µM: TGI (HT29 colon) | TGI (NCI-H23 lung) | TGI (SF-539 CNS) | TGI (SR leukemia) | TGI (SK-MEL-2 melanoma) | TGI (MALME-3M melanoma) | TGI (IGROV1 ovarian)

Cn1c2ccccc2c(=S)c2cc(NC(=O)CCCCC(=O)Nc3ccc4c(c3)c(=S)c3ccccc3n4C)ccc21
> 100 µM: TGI (MDA-MB-231 breast) | TGI (NCI/ADR-RES ovarian) | TGI (HT29 colon) | TGI (NCI-H23 lung) | TGI (HCT-116 colon) | TGI (SF-539 CNS) | TGI (SR leukemia) | TGI (SK-MEL-2 melanoma) | TGI (IGROV1 ovarian)
